Test results: PubChem BioAssay (NCI)
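Cultured in 96-well plates, cells were exposed to test compound for 48 hours across five concentrations. Definition used: TGI = concentration required for complete inhibition of growth.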

Key:
Experiment in all cases: NCI-60 cell line screen, 48 h
786-0 renal = tested on: 786-0 renal
A498 renal = tested on: A498 renal
A549 NSCLC = tested on: A549 NSCLC
ACHN renal = tested on: ACHN renal
CAKI-1 renal = tested on: CAKI-1 renal
CCRF-CEM leukemia = tested on: CCRF-CEM leukemia
COLO 205 colon = tested on: COLO 205 colon
DLD-1 colon = tested on: DLD-1 colon
DMS 273 small cell lung = tested on: DMS 273 small cell lung
EKVX NSCLC = tested on: EKVX NSCLC
HCC-2998 colon = tested on: HCC-2998 colon
HCT-116 colon = tested on: HCT-116 colon
HCT-15 colon = tested on: HCT-15 colon
HL-60(TB) leukemia = tested on: HL-60(TB) leukemia
HOP-18 NSCLC = tested on: HOP-18 NSCLC
HOP-62 NSCLC = tested on: HOP-62 NSCLC
HOP-92 NSCLC = tested on: HOP-92 NSCLC
IGROV1 ovarian = tested on: IGROV1 ovarian
K-562 leukemia = tested on: K-562 leukemia
KM12 colon = tested on: KM12 colon
KM20L2 colon = tested on: KM20L2 colon
LOX IMVI melanoma = tested on: LOX IMVI melanoma
LXFL 529 NSCLC = tested on: LXFL 529 NSCLC
M14 melanoma = tested on: M14 melanoma
M19-MEL melanoma = tested on: M19-MEL melanoma
MALME-3M melanoma = tested on: MALME-3M melanoma
MOLT-4 leukemia = tested on: MOLT-4 leukemia
NCI-H226 lung = tested on: NCI-H226 lung
NCI-H23 lung = tested on: NCI-H23 lung
NCI-H460 lung = tested on: NCI-H460 lung
NCI-H522 lung = tested on: NCI-H522 lung
OVCAR-3 ovarian = tested on: OVCAR-3 ovarian
OVCAR-4 ovarian = tested on: OVCAR-4 ovarian
OVCAR-5 ovarian = tested on: OVCAR-5 ovarian
OVCAR-8 ovarian = tested on: OVCAR-8 ovarian
RXF 393 renal = tested on: RXF 393 renal
SF-268 CNS = tested on: SF-268 CNS
SF-295 CNS = tested on: SF-295 CNS
SF-539 CNS = tested on: SF-539 CNS
SK-MEL-2 melanoma = tested on: SK-MEL-2 melanoma
SK-MEL-28 melanoma = tested on: SK-MEL-28 melanoma
SK-MEL-5 melanoma = tested on: SK-MEL-5 melanoma
SK-OV-3 ovarian = tested on: SK-OV-3 ovarian
SN12C renal = tested on: SN12C renal
SNB-19 CNS = tested on: SNB-19 CNS
SNB-75 CNS = tested on: SNB-75 CNS
SNB-78 CNS = tested on: SNB-78 CNS
SR leukemia = tested on: SR leukemia
SW-620 colon = tested on: SW-620 colon
TK-10 renal = tested on: TK-10 renal
U251 CNS = tested on: U251 CNS
UACC-257 melanoma = tested on: UACC-257 melanoma
UACC-62 melanoma = tested on: UACC-62 melanoma
UO-31 renal = tested on: UO-31 renal
XF 498 CNS = tested on: XF 498 CNS
DMS 114 small cell lung = tested on: DMS 114 small cell lung
DU-145 prostate = tested on: DU-145 prostate
HT29 colon = tested on: HT29 colon
RPMI-8226 leukemia = tested on: RPMI-8226 leukemia

Work on `COc1ccc(Nc2nc3c(N)cc(C(F)(F)F)cc3nc2-c2ccccc2)cc1OC` yielded a TGI (786-0 renal) of 28.9 µM, a TGI (A498 renal) of 70 µM and a TGI (A549 NSCLC) of 66.1 µM. For the same compound, the TGI (ACHN renal) was 27.5 µM, the TGI (CAKI-1 renal) was 42.5 µM and the TGI (CCRF-CEM leukemia) was > 100 µM. For the same compound, the TGI (COLO 205 colon) was > 100 µM, the TGI (DLD-1 colon) was > 100 µM and the TGI (DMS 273 small cell lung) was > 100 µM. For the same compound, the TGI (EKVX NSCLC) was 59.7 µM, the TGI (HCC-2998 colon) was 89.6 µM and the TGI (HCT-116 colon) was > 100 µM. The TGI (HCT-15 colon) was > 100 µM, the TGI (HL-60(TB) leukemia) was > 100 µM and the TGI (HOP-18 NSCLC) was 43.8 µM. It also gave a TGI (HOP-62 NSCLC) of 57.8 µM, a TGI (HOP-92 NSCLC) of 46.3 µM and a TGI (IGROV1 ovarian) of 69.7 µM. The TGI (K-562 leukemia) was > 100 µM, the TGI (KM12 colon) was > 100 µM and the TGI (KM20L2 colon) was > 100 µM. For the same compound, the TGI (LOX IMVI melanoma) was > 100 µM, the TGI (LXFL 529 NSCLC) was 46.4 µM and the TGI (M14 melanoma) was > 100 µM. The TGI (M19-MEL melanoma) was 60.4 µM, the TGI (MALME-3M melanoma) was 38.5 µM and the TGI (MOLT-4 leukemia) was > 100 µM. The TGI (NCI-H226 lung) was 57.9 µM, the TGI (NCI-H23 lung) was > 100 µM and the TGI (NCI-H460 lung) was > 100 µM. The TGI (NCI-H522 lung) was 43.9 µM, the TGI (OVCAR-3 ovarian) was 42.9 µM and the TGI (OVCAR-4 ovarian) was 33.8 µM. For the same compound, the TGI (OVCAR-5 ovarian) was > 100 µM, the TGI (OVCAR-8 ovarian) was 43.2 µM and the TGI (RXF 393 renal) was 50.2 µM. The TGI (SF-268 CNS) was 71.1 µM, the TGI (SF-295 CNS) was 44.8 µM and the TGI (SF-539 CNS) was 39.6 µM. For the same compound, the TGI (SK-MEL-2 melanoma) was 69.1 µM, the TGI (SK-MEL-28 melanoma) was > 100 µM and the TGI (SK-MEL-5 melanoma) was 62.3 µM. The TGI (SK-OV-3 ovarian) was 28.6 µM, the TGI (SN12C renal) was 47.1 µM and the TGI (SNB-19 CNS) was 53.8 µM. For the same compound, the TGI (SNB-75 CNS) was 17.5 µM, the TGI (SNB-78 CNS) was 75.7 µM and the TGI (SR leukemia) was > 100 µM. The TGI (SW-620 colon) was > 100 µM, the TGI (TK-10 renal) was 47.3 µM and the TGI (U251 CNS) was 42.8 µM. For the same compound, the TGI (UACC-257 melanoma) was 63.9 µM, the TGI (UACC-62 melanoma) was 44.6 µM and the TGI (UO-31 renal) was 95.3 µM. The TGI (XF 498 CNS) was 33.1 µM.

For `CCOP(=O)(OCC)/C(C#N)=C\c1ccc(OC(C)=O)cc1`, the TGI (786-0 renal) was > 100 µM, the TGI (A498 renal) was > 100 µM and the TGI (A549 NSCLC) was > 100 µM. The TGI (ACHN renal) was > 100 µM, the TGI (CAKI-1 renal) was > 100 µM and the TGI (CCRF-CEM leukemia) was > 100 µM. For the same compound, the TGI (COLO 205 colon) was > 100 µM, the TGI (DLD-1 colon) was > 100 µM and the TGI (DMS 114 small cell lung) was > 100 µM. The TGI (DU-145 prostate) was > 100 µM, the TGI (EKVX NSCLC) was > 100 µM and the TGI (HCC-2998 colon) was > 100 µM. For the same compound, the TGI (HCT-116 colon) was > 100 µM, the TGI (HCT-15 colon) was > 100 µM and the TGI (HL-60(TB) leukemia) was > 100 µM. The TGI (HOP-18 NSCLC) was > 100 µM, the TGI (HOP-62 NSCLC) was > 100 µM and the TGI (HOP-92 NSCLC) was > 100 µM. The TGI (HT29 colon) was > 100 µM, the TGI (IGROV1 ovarian) was > 100 µM and the TGI (K-562 leukemia) was > 100 µM. For the same compound, the TGI (KM12 colon) was > 100 µM, the TGI (KM20L2 colon) was > 100 µM and the TGI (LOX IMVI melanoma) was > 100 µM. The TGI (LXFL 529 NSCLC) was > 100 µM, the TGI (M14 melanoma) was > 100 µM and the TGI (M19-MEL melanoma) was > 100 µM. For the same compound, the TGI (MALME-3M melanoma) was > 100 µM, the TGI (MOLT-4 leukemia) was > 100 µM and the TGI (NCI-H226 lung) was > 100 µM. For the same compound, the TGI (NCI-H23 lung) was > 100 µM, the TGI (NCI-H460 lung) was > 100 µM and the TGI (NCI-H522 lung) was > 100 µM. For the same compound, the TGI (OVCAR-3 ovarian) was > 100 µM, the TGI (OVCAR-4 ovarian) was > 100 µM and the TGI (OVCAR-5 ovarian) was > 100 µM. For the same compound, the TGI (OVCAR-8 ovarian) was > 100 µM, the TGI (RPMI-8226 leukemia) was > 100 µM and the TGI (RXF 393 renal) was > 100 µM. For the same compound, the TGI (SF-268 CNS) was > 100 µM, the TGI (SF-295 CNS) was > 100 µM and the TGI (SF-539 CNS) was > 100 µM. For the same compound, the TGI (SK-MEL-2 melanoma) was > 100 µM, the TGI (SK-MEL-28 melanoma) was > 100 µM and the TGI (SK-MEL-5 melanoma) was > 100 µM. For the same compound, the TGI (SK-OV-3 ovarian) was > 100 µM, the TGI (SN12C renal) was > 100 µM and the TGI (SNB-19 CNS) was > 100 µM. The TGI (SNB-75 CNS) was > 100 µM, the TGI (SNB-78 CNS) was > 100 µM and the TGI (SR leukemia) was > 100 µM. The TGI (SW-620 colon) was > 100 µM, the TGI (TK-10 renal) was > 100 µM and the TGI (U251 CNS) was > 100 µM. For the same compound, the TGI (UACC-257 melanoma) was > 100 µM, the TGI (UACC-62 melanoma) was > 100 µM and the TGI (UO-31 renal) was > 100 µM. The TGI (XF 498 CNS) was > 100 µM.
